Results from patent publication US20030022923A1, “Methods for treatment of sickle cell anemia” (Medinox, Inc., priority 2001, published 2003).

Columns and labels:
[1] = Pharmacokinetic study of vanillin-thiazolidine adduct and vanillin by oral administration in rats (vanillin in blood by HPLC); format: in vivo, Sprague-Dawley rats; settings: oral gavage, blood concentration-time curves 2-180 min
Method: Sixteen Sprague-Dawley rats (male, 200-300 g) were catheterized at the carotid at least 12 hours before drug administration and the catheter was flushed with heparin solution to prevent line clotting. […] Blood samples were collected by unhooking the flush syringe and letting the blood flow freely into centrifuge tubes at predetermined time points, i.e., 2, 5, 10, 15, 30, 45, 60, 90, 120 and 180 minutes after gavage. To each 100 μl of blood sample was added 400 μl of perchloric acid in a centrifuge tube. After vigorously vortexing, the samples in centrifuge tubes were spun down at 13,000 rpm for 10 min.
A striking difference was noted between the pharmacokinetic profiles of vanillin-thiazolidine and of unmodified vanillin.
Noncompartmental pharmacokinetic analysis was then carried out using WinNolin (Pharsight Inc., Mountain View, Calif.) and the results are summarized in Table 1, below. […] The maximum concentration at 2 minutes (Cmax) was also approximately 4 times higher in the former compared to the latter.

[2] = Hydrophobicity compared with vanillin; format: physicochemical
Source text: It is well known that vanillin can be extensively metabolized by intestinal bacteria and the liver (Strand and Scheline, supra). It is likely that the vanillin-derived thiazolidine is not easily metabolized by the same routes.

[3] = cited from earlier work
hemoglobin S = hemoglobin S (Homo sapiens, UniProt P68871+P69905, E7V); settings: in solution and in intact red cells; cited from earlier work
[4] = orally administered; extensive metabolism in the intestines and liver; cited from earlier work

hydrophobicity relative to vanillin [2]	SMILES	vanillin levels in the blood and half-life (FIG. 1 profile, in words) [1]	body and organ weights, hemotology, histopathology, test vs control rats ([3]; 1.0% of the diet for 16 weeks, 2.0% and 5.0% for 1 year, or 0.5%, 1.0% and 2.0% for 2 years)	toxicity on extended feeding ([3]; rats, vanillin at high levels for extensive periods)	oxygen affinity of hemoglobin S (hemoglobin S)	oral bioavailability [4]
more hydrophobic than vanillin	CCOC(=O)C1CSC(c2ccc(O)c(OC)c2)N1 (stereo not shown) [Vanillin-Thiazolidine Adduct, Ethyl 2-(4-hydroxy-3-methoxyphenyl)-1,3-thiazolidine-4-carboxylate]	higher, with a much longer half-life	–	–	–	–
–	COc1cc(C=O)ccc1O [Vanillin, 4-hydroxy-3-methoxybenzaldehyde]	low with a short half-life	no significant differences	No toxicity was observed	marked increase in oxygen affinity	poorly bioavailable
